Test results: US10400242B2, “Methods for treating acute myeloid leukemia and nanoparticle complexes of miR-22 utilized therein” (University of Cincinnati, priority 2016, dated 2019)

How the values were obtained:
miR-22 promoter = assay: Bisulfite sequencing of miR-22 promoter in ATRA-treated THP-1 cells; assay type: cell-based, human; settings: 1 μM ATRA or DMSO, 72 hrs
THP-1 cells = assay: ATRA-treatment study, gene expression (qPCR) in THP-1 cells; assay type: cell-based, human; settings: 1 μM ATRA, 72 hours, vs DMSO
Protocol: Total RNA was extracted with the miRNeasy extraction kit (Qiagen, Valencia, Calif.) and was used as template to synthesize cDNA for quantitative RT-PCR (qPCR) analysis in a 7900HT real-time PCR system (Applied Biosystems, Foster City, Calif.). TaqMan qPCR assay was performed to validate the differential expression patterns of miR-22 using commercial kits from Applied Biosystems (Cat. #4427975). Sequences for the controls are: sno202: 5′-[…]-3′ (SEQ ID NO: 1); RNU6B: 5′-[…]-3′ (SEQ ID NO: 4). qPCR with SYBR Green dye (Qiagen) was used to determine expression of mRNA genes. snoRNA202, RNU48, Gapdh or GAPDH were used as endogenous controls for qPCR of miRNA and mRNA, respectively. Each sample was run in triplicate. qPCR primers are available upon request. For determining the miR-22 DNA locus copy number, TaqMan qPCR assay was used as described previously^57.
(§1) For the ATRA-treatment study, THP-1 cells were seeded at a concentration of 0.4×10^6/mL and treated with ATRA (1 μmol/L) or vehicle control (DMSO, 0.001%) for 72 hours before cells were collected for RNA analysis or CUP assays.

miR-22 promoter region = assay: ChIP-qPCR of miR-22 promoter region in ATRA-treated THP-1 cells; assay type: cell-based, human; settings: 1 μM ATRA, 72 hours
Protocol: as §1
ChIP assay was performed, as described previously^14, 17, with SABiosciences Corporation's ChampionChiP™ One-Day kit (Qiagen, Frederick, Md.) following the manufacturer's protocol, with some modifications. Briefly, pellets of 5×10^6 cells were treated with fresh fixing buffer (1% formaldehyde) for 10 min at 37° C. to crosslink DNA and proteins. The reaction was terminated by the addition of stop buffer and incubated at room temperature for 5 min. After cell lysis, the cross-linked chromatin was sonicated to an average size of ˜500 bp and was immunoprecipitated with antibodies against TET1, GFI1 (Santa Cruz Biotechnology Inc., Santa Cruz, Calif.), the N′-terminal portion of MLL (MLL-N), the C′-terminal of MLL (MLL-C), H3K27Me3, H3K4Me3, RNA polymerase II, EZH2, SIN3A or IgG (Abcam, Cambridge, Mass.). Purified ChIP DNA was amplified by real-time qPCR using specific primers targeting the CpG-enriched upstream region of human miR-22: Forward: 5′-GTT GTT GGA GTC GTG AGT G-3′ (SEQ ID NO: 15); reverse: 5′-CGC TCC ACC TTT CCT TAA A-3′ (SEQ ID NO: 16); or mouse miR-22: Forward: 5′-TGA ATG GGC GGG AGT AA-3′ (SEQ ID NO: 17); reverse: 5′-CCAC GAG CTG CGA ATG AA-3′ (SEQ ID NO: 18).

MONOMAC-6 cells [1] = assay: Viability and apoptosis of MONOMAC-6 cells treated with dendrimers; assay type: cell-based, human; settings: compared with PBS
MONOMAC-6 cells [2] = assay: Cellular uptake of dendrimers in MONOMAC-6 cells; assay type: cell-based, human
Description: (§2) In order to selectively deliver miR-22 oligos to FLT3-expressing AML cells, Poly(amidoamine) (PAMAM) dendrimers (Hong S, et al. Bioconjugate Chemistry. 2006; 17:728-34, Hong S, et al. Bioconjugate Chemistry. 2009; 20:1503-13, and Sunoqrot S, et al. J Control Release. 2014; 191:115-22, incorporated herein by reference) are selected as the basis of the nanoparticle carriers, and conjugated with the near-infrared dye Cyanine 5.5 (Cy5.5) for monitoring the dynamic distributions of the nanoparticles, and FLT3 ligand (FLT3L) proteins for specific targeting FLT3 on the cell surface. H2B, a nuclear histone protein with similar molecular weight as FLT3L, was conjugated as a negative control. G7-FLT3L dendrimers will efficiently and selectively target AML cells with FLT3 overexpression.

U937 cells = assay: Cellular uptake of dendrimers in U937 cells; assay type: cell-based; settings: U937 cells (very low levels of FLT)
Description: as §2

Molecule | methylation status of the miR-22 promoter (miR-22 promoter) | WDR81 level (THP-1 cells) | expression of TET1, EZH2 and SIN3A (THP-1 cells) | expression of TET2 or TET3 (down-regulation) (THP-1 cells) | increase in miR-22 expression level (THP-1 cells) | transcription level of GFI1 (THP-1 cells) | H3K4Me3 modifications at miR-22 promoter region (miR-22 promoter region) | H3K27me3 modifications at miR-22 promoter region (miR-22 promoter region) | RNA polymerase II occupancy at miR-22 promoter region (miR-22 promoter region) | binding of GFI1, TET1, EZH2 and SIN3A to the miR-22 promoter region (miR-22 promoter region) | binding of MLL protein to the miR-22 promoter region (reduction) (miR-22 promoter region) | viability and apoptosis (cytotoxicity) (MONOMAC-6 cells [1]) | one-hour uptake ratio (MONOMAC-6 cells [2]; FLT3-overexpressing AML cells, one hour) | uptake ratio after suppression of endogenous FLT3 expression (MONOMAC-6 cells [2]; MONOMAC-6 cells overexpressing miR-22) | uptake ratio after 24 hours' treatment (MONOMAC-6 cells [2]; MONOMAC-6 cells, 24 hours, G7-FLT3L vs G7-H2B control) | uptake ratios, G7-FLT3L vs G7-H2B (U937 cells)
CC1=C(/C=C/C(C)=C/C=C/C(C)=C/C(=O)O)C(C)(C)CCC1 [ATRA, all-trans-retinoic acid] | hypomethylated | no significant effects | significantly down-regulated | not | more than 5 fold | substantially reduced | no significant change | significantly decreased | increased | remarkably reduced | not |  |  |  |  | 
G7-FLT3L dendrimers: FLT3L-conjugated Generation 7 (G7) PAMAM dendrimers, Cy5.5-labelled, targeting FLT3 on AML cells (conjugate) TQDCSFQHSPISSDFAVKIRELSDYLLQDYPVTVASNLQDEELCGGLWRLVLAQRWMERLKTVAGSKMQGLLERVNTEIHFVTKCAFQPPPSCLRFVQTNISRLLQETSEQLVALKPWITRQNFSRCLELQCQPDSSTLPPPWSPRPLEATAPTA |  |  |  |  |  |  |  |  |  |  |  | low, if any, cytotoxicity | 23.6% | significant decrease | significantly higher | no significant difference
